From patent US7759459B2, “Fluorescent assays for protein kinases” (Albert Einstein College of Medicine of Yeshiva University, priority 2003, dated 2010)
Numbered stars: 1 amine (or outer) side, 2 acyl side, 3 side chain; on linkers, the order of the positions; unused ones are H or OH. Square brackets hold non-standard residues; d marks the D form. Peptide text beside a SMILES is read from it. * marks the point of attachment. X2 = O=C(O)CN(CC(=O)O)c1ccc(-c2c3cc(F)c(=O)cc-3oc3cc(O)c(F)cc23)cc1OCC(=O)*; X1 = O=C([C@H](CO)N(c1ccc([N+](=O)[O-])c2nonc12)[*:1])[*:2]; Acridine9carbonyl = O=C(c1c2ccccc2nc2ccccc12)*; Dansyl = CN(C)c1cccc2c(S(=O)(=O)*)cccc12; Cysteamide = C(CS[*:3])N[*:1]; Sar = CNCC(=O)O

Each compound was assayed on protein kinase C (assay: Screen of fluorophore-peptide library for fluorescence change in the presence of PKC and ATP). Settings: Table 3 library.
Assay type: biochemical
Experimental: (§1) Fluorescent PKC assay-Fluorescence assays were performed in triplicate at 30° C. and initiated by addition of ATP to a 100 μL cuvette containing a 50 μL solution of PKC and peptide substrate 2. Final conditions: 62.5 mM HEPES pH 7.4, 3 mM MgCl2, 0.3 mM CaCl2, 0.1 mM EGTA, 1 mM DTT, 0.5 μg/mL phosphatidylserine, 0.1 μg/mL diacylglycerol, 1 mM ATP, and 13 nM PKC. After the addition of ATP, the solution was gently mixed and the time-dependent change in fluorescent intensity (excitation: 520 nm, emission: […]) continuously monitored with a Photon Technology QM-1 spectrofluorimeter.
The peptide H2N-Ser-Phe-Arg-Arg-Arg-Arg-Lys-amide (1) (SEQ ID NO:2) was prepared using an Fmoc-based protocol, spatially segregated, and the free N-terminal amine subsequently modified with an array of fluorophore-containing carboxylic acids (I), aromatic aldehydes (II), and electron deficient aryl halides (III). […] This spatially segregated fluorophore-substituted peptide-based library contains a total of 415 distinct chemical entities (Table 3) and was screened for changes in fluorescence intensity in the presence of PKC and ATP under activating conditions. […] The obvious explanation is that phosphorylation of the peptide fails to induce the desired change in photophysical properties of the appended fluorophore. However, it is also possible that introduction of fluorophores, at various sites along the peptide framework, interferes with PKC-catalyzed phosphorylation. The latter possibility is unlikely, particularly for simple N-monosubstituted peptides, since PKC will phosphorylate peptides containing a wide variety of structurally diverse functionality attached at and/or near the phosphorylatable serine moiety.^24 Nevertheless, a few representative members of the library were evaluated in depth (Table 1). […]. One explanation for the poor fluorescence response of these particular peptides to PKC/ATP could be that these peptides serve as poor PKC substrates. This possibility was addressed by obtaining the PKCα-catalyzed Km and Vmax values using the [γ-^32P]ATP radioactive method.^25 As is clear from Table 1, all five peptides are reasonably effective substrates for PKCα.
Table 3. Structures of 415 compounds tested. The % change observed in fluorescence intensity upon phosphorylation of the compound by protein kinase C is shown in the right column. […] The compound labeled as compound 21 in Table 3 is the same as compound 2 in Example I, which is also shown in Scheme 2.

Row | % change observed in fluorescence intensity upon phosphorylation of the compound by protein kinase C | Compound
1 | <10% | CN(C)c1cccc2c(S(=O)(=O)NC(=N)NC(O)C(=O)NC(C(=O)NC(NC(=N)N)C(=O)NC(NC(=N)N)C(=O)NC(NC(=N)N)C(=O)NC(NC(=N)N)C(=O)NC(N)C(N)=O)c3ccccc3)cccc12 (stereo not shown) [Compound 85]
2 | <10% | N=C(N)NC(NC(=O)C(NC(=N)N)NC(=O)C(NC(=N)N)NC(=O)C(NC(=N)N)NC(=O)C(NC(=O)C(O)NC(=O)C(CO)C1C=c2cc3ccccc3cc2=C1SC(=N)N)c1ccccc1)C(=O)NC(N)C(N)=O (stereo not shown) [Compound 91]
3 | <10% | N=C(N)NC(NC(=O)C(NC(=N)N)NC(=O)C(NC(=N)N)NC(=O)C(NC(=N)N)NC(=O)C(NC(=O)C(O)Nc1ccc(N)cc1)c1ccccc1)C(=O)NC(N)C(N)=O (stereo not shown) [Compound 76]
4 | <10% | CCCCCC(=O)NCCCCC(CNS(=O)(=O)c1cccc2c(N(C)C)cccc12)NC(O)C(=O)NC(C(=O)NC(NC(=N)N)C(=O)NC(NC(=N)N)C(=O)NC(NC(=N)N)C(=O)NC(NC(=N)N)C(=O)NC(N)C(N)=O)c1ccccc1 (stereo not shown) [Compound 81]
5 | <10% | N=C(N)NNC1=c2cc3ccccc3cc2=CC1C(CO)C(=O)NC(C(=O)NC(NC(=N)N)C(=O)NC(NC(=N)N)C(=O)NC(NC(=N)N)C(=O)NC(NC(=N)N)C(=O)NC(N)C(N)=O)c1ccccc1 (stereo not shown) [Compound 92]
6 | <10% | N=C(N)NC1=c2cc3ccccc3cc2=CC1C(CO)C(=O)NC(O)C(=O)NC(C(=O)NC(NC(=N)N)C(=O)NC(NC(=N)N)C(=O)NC(NC(=N)N)C(=O)NC(NC(=N)N)C(=O)NC(N)C(N)=O)c1ccccc1 (stereo not shown) [Compound 89]
7 | <10% | COCCN(CCOC)C1=c2cc3ccccc3cc2=CC1C(CO)C(=O)NC(C(=O)NC(NC(=N)N)C(=O)NC(NC(=N)N)C(=O)NC(NC(=N)N)C(=O)NC(NC(=N)N)C(=O)NC(N)C(N)=O)c1ccccc1 (stereo not shown) [Compound 93]
8 | <10% | CCCCCCCCCC(=O)NCCCCC(CNS(=O)(=O)c1cccc2c(N(C)C)cccc12)NC(O)C(=O)NC(C(=O)NC(NC(=N)N)C(=O)NC(NC(=N)N)C(=O)NC(NC(=N)N)C(=O)NC(NC(=N)N)C(=O)NC(N)C(N)=O)c1ccccc1 (stereo not shown) [Compound 82]
9 | <10% | N#CC1=c2cc3ccccc3cc2=CC1C(=N)NC(O)C(=O)NC(C(=O)NC(NC(=N)N)C(=O)NC(NC(=N)N)C(=O)NC(NC(=N)N)C(=O)NC(NC(=N)N)C(=O)NC(N)C(N)=O)c1ccccc1 (stereo not shown) [Compound 86]
10 | <10% | N=C(N)NC(NC(=O)C(NC(=N)N)NC(=O)C(NC(=N)N)NC(=O)C(NC(=N)N)NC(=O)C(NC(=O)c1ccc2c3c4c(ccc13)C=CCC4=CC2)NC(=O)C(O)Nc1ccc([N+](=O)[O-])c2nonc12)C(N)=O (stereo not shown) [Compound 73]
11 | <10% | N=C(N)NC(NC(=O)C(NC(=N)N)NC(=O)C(NC(=N)N)NC(=O)C(NC(=N)N)NC(=O)C(NC(=O)C(O)N1C=C(c2ccccc2)C(=O)C1(O)c1ccccc1C(=O)O)c1ccccc1)C(=O)NC(N)C(N)=O (stereo not shown) [Compound 78]
12 | <10% | N#CC1=c2cc3ccccc3cc2=CC1C(CO)C(=O)NC(O)C(=O)NC(C(=O)NC(NC(=N)N)C(=O)NC(NC(=N)N)C(=O)NC(NC(=N)N)C(=O)NC(NC(=N)N)C(=O)NC(N)C(N)=O)c1ccccc1 (stereo not shown) [Compound 90]
13 | <10% | N=C(N)NC(NC(=O)C(NC(=N)N)NC(=O)C(NC(=N)N)NC(=O)C(NC(=N)N)NC(=O)C(NC(=O)C(O)NC(=O)C(CO)C1C=c2cc3ccccc3cc2=C1NN)c1ccccc1)C(=O)NC(N)C(N)=O (stereo not shown) [Compound 88]
14 | <10% | N=C(N)NC(NC(=O)C(NC(=N)N)NC(=O)C(NC(=N)N)NC(=O)C(NC(=N)N)NC(=O)C(NC(=O)Cc1cc(=O)oc2cc(O)ccc12)NC(=O)C(O)Nc1ccc([N+](=O)[O-])c2nonc12)C(N)=O (stereo not shown) [Compound 75]
15 | <10% | N=C(N)NC(NC(=O)C(NC(=N)N)NC(=O)C(NC(=N)N)NC(=O)C(NC(=N)N)NC(=O)C(NC(=O)C(O)NC(=N)Nc1ccc(NOO)c2nonc12)c1ccccc1)C(=O)NC(N)C(N)=O (stereo not shown) [Compound 87]

Row | Compound | % change observed in fluorescence intensity upon phosphorylation of the compound by protein kinase C
16 | N=C(N)NC(NC(=O)C(NC(=N)N)NC(=O)C(NC(=N)N)NC(=O)C(NC(=N)N)NC(=O)C(NC(=O)C(O)/N=C/c1cc([N+](=O)[O-])cc([N+](=O)[O-])c1O)c1ccccc1)C(=O)NC(N)C(N)=O (stereo not shown) [Compound 55] | <10%
17 | N=C(N)NC(NC(=O)C(NC(=N)N)NC(=O)C(NC(=N)N)NC(=O)C(NC(=N)N)NC(=O)C(NC(=O)C(O)N=C1N=c2c(c3ccccc3c3ccccc23)=N1)c1ccccc1)C(=O)NC(N)C(N)=O (stereo not shown) [Compound 77] | <10%

What follows are compounds tested against T1, PKCα (Homo sapiens, UniProt P17252) (assay: Fluorescent PKC assay (spectrofluorimetry)). Settings: PKC/ATP; fluorescence assay.
Assay type: biochemical
Experimental: as §1

Row | Compound | fluorescence intensity change following phosphorylation (in words)
18 | H2N-Ser-Phe-Arg4-Lys(NBD)-amide [peptide 3] | No Fluorescence Intensity Change

Same assay, conditions: PKCα-catalyzed phosphorylation; spectrofluorimetry

Row | Fluorescence enhancement upon phosphorylation (% Change) | Compound
19 | 150% | N=C(N)NCCC[C@H](NC(=O)[C@H](CCCNC(=N)N)NC(=O)[C@H](CCCNC(=N)N)NC(=O)[C@H](CCCNC(=N)N)NC(=O)[C@H](Cc1ccccc1)NC(=O)[C@H](CO)Nc1ccc([N+](=O)[O-])c2nonc12)C(=O)N[C@@H](CCCCN)C(N)=O (H-[X1]FRRRRK-NH2)
20 | 20% | CN(C)c1cccc2c(S(=O)(=O)N[C@@H](CO)C(=O)N[C@@H](Cc3ccccc3)C(=O)N[C@@H](CCCNC(=N)N)C(=O)N[C@@H](CCCNC(=N)N)C(=O)N[C@@H](CCCNC(=N)N)C(=O)N[C@@H](CCCNC(=N)N)C(=O)N[C@@H](CCCCN)C(N)=O)cccc12 (Dansyl-SFRRRRK-NH2)

Row | Compound | Fluorescence enhancement upon phosphorylation (% Change)
21 | N=C(N)NCCC[C@H](NC(=O)[C@H](CCCNC(=N)N)NC(=O)[C@H](CCCNC(=N)N)NC(=O)[C@H](CCCNC(=N)N)NC(=O)[C@H](Cc1ccccc1)NC(=O)[C@H](CO)NC(=O)c1c2ccccc2nc2ccccc12)C(=O)N[C@@H](CCCCN)C(N)=O (Acridine9carbonyl-SFRRRRK-NH2) | 20%

These compounds were tested against T1, PKCα (assay: Radioactive PKC assay ([γ-32P]ATP)). Settings: Table 2.
Assay type: biochemical
Experimental: Radioactive PKC Assay—Radioactive assays were performed in duplicate at 30° C. The final assay volume totaled 40 μl and contained 62.5 mM HEPES (pH 7.4), 0.75 mM CaCl2, 12.5 mM MgCl2, 1 mM dithiothreitol, 0.5 mM EGTA, 7.5 μg/mL phosphatidylserine, 1.6 μg/mL diacylglycerol, and 10 ng of PKC. […] Phosphorylation reactions were initiated by the addition of 10 μL of PKC from a stock solution (20 mM Tris-HCl at pH 7.5, 1 mM dithiothreitol, 1 mM EDTA, and 0.75 mg/mL bovine serum albumin) into 30 μL of assay buffer containing peptide substrate. Reactions were terminated after 5 min by spotting 25 μL aliquots onto phosphocellulose paper disks (2.1 cm in diameter). After 10 s, the disks were immersed in 10% glacial acetic acid and soaked with occasional stirring for at least 1 h. The acetic acid was decanted and the disks were collectively washed with four volumes of 0.5% H3PO4, 1 volume of water, followed by a final acetone rinse. The disks were air dried and then counted in a Beckman LS scintillation counter.

Row | Compound | Km | kcat
22 | H2N-Ser-Phe-Arg4-Lys(NBD)-amide [peptide 3] | 19 ± 1 µM | 3.5 ± 0.167 s⁻¹

These compounds were tested against T1, PKCα (assay: Protein kinase C assay (Example II)). Settings: PKC-catalyzed phosphorylation.
Assay type: biochemical
Experimental: Protein kinase C assay. The kinase-catalyzed reaction was performed in triplicate at 30° C. and initiated by addition of ATP to a solution of PKCα and fluorophore-appended peptide substrate 23 (except in the case of the library, where the assays were performed in a 96 well plate using a fluorescence plate reader). Final conditions: 62.5 mM HEPES, 3 mM MgCl2, 0.3 mM CaCl2, 0.1 mM EGTA, 1 mM DTT, 0.5 μg/mL phosphatidylserine, 0.1 μg/mL diacylglycerol, 1 mM ATP, and 13 nM PKCα (pH 7.4). After the addition of ATP, the solution was gently mixed and the time-dependent change in fluorescent intensity (λexcitation=[…]; λemission=521 nm) continuously monitored with a Photon Technology QM-1 spectrofluorimeter.

Row | Km | Vmax | Compound
23 | 63 µM | 1.9 µmol/min/mg | L-proline
24 | 23.5 µM | 1.0 µmol/min/mg | D-proline

Same assay, conditions: upon PKC-catalyzed phosphorylation

Row | % Change Fluorescence | Compound
25 | 264% | CN(CC(=O)N[C@@H](CO)C(=O)N[C@@H](Cc1ccccc1)C(=O)N[C@@H](CCCNC(=N)N)C(=O)N[C@@H](CCCNC(=N)N)C(=O)N[C@@H](CCCNC(=N)N)C(=O)N[C@@H](CCCNC(=N)N)C(=O)NCCS)C(=O)COc1cc(-c2c3cc(F)c(=O)cc-3oc3cc(O)c(F)cc23)ccc1N(CC(=O)O)CC(=O)O [N-Me glycine] (X2-[Sar]SFRRRR-Cysteamide)
26 | 150% | L-proline
27 | 156% | D-proline

Row | Compound | % Change Fluorescence
28 | CNCC(=O)O [N-methyl glycine] | 264%
